Measured values taken from PubChem BioAssay (NCI).
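Results reflect a 48-hour exposure of cells in 96-well plates to compound at five concentrations. GI50 marks 50% less growth. TGI marks complete inhibition of growth.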

Experiments:
Assay in all cases: NCI anticancer screen, dose series, 48 h
[1] = tested on: EKVX NSCLC
[2] = tested on: HCT-116 colon
[3] = tested on: MALME-3M melanoma
[4] = tested on: MDA-MB-435
[5] = tested on: NCI-H522 lung
[6] = tested on: OVCAR-3 ovarian
[7] = tested on: SK-OV-3 ovarian
[8] = tested on: SNB-19 CNS
[9] = tested on: SR leukemia
[10] = tested on: HL-60(TB) leukemia

Row | Compound | GI50 [1] [µM] | TGI [1] [µM] | GI50 [2] [µM] | TGI [2] [µM] | GI50 [3] [µM] | TGI [3] [µM] | GI50 [4] [µM] | TGI [4] [µM] | GI50 [5] [µM] | TGI [5] [µM] | GI50 [6] [µM] | TGI [6] [µM] | GI50 [7] [µM] | TGI [7] [µM] | GI50 [8] [µM] | TGI [8] [µM] | GI50 [9] [µM] | TGI [9] [µM] | TGI [10] [µM] | GI50 [10] [µM]
1 | Cc1cc(-c2nc3ccc(O)cc3s2)ccc1N | 4.07 | 58.3 | 43.9 | > 100 | 82.8 | > 100 | 88.3 | > 100 | 30 | > 100 | 39.3 | > 100 | 36.9 | > 100 | 46 | > 100 | 22 | > 100 |  | 
2 | CCCN(CCC)C(=O)Cc1c2n(c3ccccc13)Cc1ccccc1-2 |  | > 100 |  | > 100 |  | > 100 |  |  |  | > 100 |  | > 100 |  | > 100 |  | > 100 |  | > 100 | > 100 | 
3 | O=C(CNC(=O)c1cccc2ccccc12)Nc1ccccc1Oc1ccccc1 | 0.778 | > 10 | 0.322 | > 10 |  | > 10 | 0.0425 | 0.313 | 0.151 | 0.612 | 0.19 | 0.638 | 0.398 | 4.34 | 0.461 | > 10 | 0.0825 | > 10 |  | 
4 | O=C(Nc1nccs1)c1cc(C2=CC=CC([N+](=O)[O-])C=C2)nc(=S)[nH]1 (stereo not given) |  | > 100 |  | > 100 |  | > 100 |  |  |  | > 100 |  | > 100 |  | > 100 |  | > 100 |  | > 100 | > 100 | 
5 | C=C1C(=O)O[C@@H]2C[C@@H](C)[C@@H]3[C@@H](OC4OC(COC(C)=O)C(O)C(O)C4O)CC(=O)[C@@]3(C)C[C@H]12 (stereo not given in full) |  | 7.6 |  | 1.88 |  | 0.849 |  | 6.03 |  | 0.301 |  | 3.46 |  | 37.4 |  | 45.1 |  | 7.53 |  | 
6 | COc1cc(-c2cc(-c3nc4ccccc4[nH]3)[nH]n2)cc(OC)c1OC |  |  | 3.16 | 16.8 | 1.95 | 8.49 | 2.35 | 7.61 | 1.87 | 8.81 | 4 | 16.4 | 3.48 | 9.74 | 17.8 | > 100 | 3.32 | > 100 | 10.5 | 2.54
7 | Cc1nn2c(/C=C3/C(=O)Nc4ccccc43)c(-c3ccc(Cl)cc3)nc2s1 | 20.3 | > 50 |  |  |  |  | 39.5 | > 50 | 46 | > 50 | 13.4 | > 50 |  |  | 10.5 | 32.6 | 13.8 | > 50 |  | 
8 | Cc1ccc(C(=O)N/N=C/c2cccc(Oc3ccccc3)c2)cn1 | 8.36 | > 100 | 4.69 | > 100 | 9.14 | > 100 |  |  | 7.38 | > 69.8 | 5.96 | > 100 | 13 | > 100 | 10.3 | > 100 | 1.01 | 20.7 | 5.77 | 1.8
9 | CN(C)CC#Cc1cccc(C(=O)c2cnn(-c3ccc(F)cc3)c2N)c1 |  |  | > 25 | > 25 | > 25 | > 25 | 11.9 | > 25 | > 25 | > 25 | > 25 | > 25 | > 25 | > 25 | > 25 | > 25 | > 18.2 | > 25 | > 25 | > 25
10 | CO/N=C1/NC(=O)/C(=C/c2ccc3ncccc3c2)S1 |  |  | 17.4 | > 25 | 13.9 | > 25 | 15 | > 25 | 12.3 | > 25 | 11.1 | > 25 | 7.78 | > 25 | 11.6 | > 25 | 14.7 | > 25 | > 25 | 13.8
11 | COc1ccc2nc(NC(=O)C(=O)CC(=O)c3ccc(Cl)cc3)sc2c1 |  | > 100 |  | > 100 |  | > 100 |  |  |  | > 100 |  | > 100 |  | > 100 |  | > 100 |  | > 100 | > 100 | 
12 | COC1=C(C(=O)OC(C)(C)C)[C@]2(C)C(C(=O)OC(C)(C)C)C(OC)=C(C(=O)OC(C)(C)C)[C@]2(C)C1C(=O)OC(C)(C)C (stereo not given in full) |  | > 100 |  | > 100 |  | > 100 |  |  |  | > 100 |  | > 100 |  | > 100 |  | > 100 |  | > 100 | > 100 | 
13 | O=C(Nc1ccc(Nc2ccncc2)cc1)c1ccc(Nc2ccnc3ccc([N+](=O)[O-])cc23)cc1 | > 100 | > 100 | > 100 | > 100 |  |  | > 100 | > 100 | > 100 | > 100 | 6.35 | > 100 | > 100 | > 100 | > 100 | > 100 | 7.53 | > 100 | > 100 | > 100
14 | COc1ccc(C=NC23CC4CC(CC(C4)C2)C3)cc1 |  | > 100 |  | > 100 |  | > 100 |  |  |  | > 100 |  | > 100 |  | > 100 |  | > 100 |  | > 100 | > 100 | 
15 | O=C(O)c1ccc(NS(=O)(=O)c2cccc3cccnc23)cc1 |  |  | > 100 | > 100 | > 100 | > 100 | > 100 | > 100 | > 100 | > 100 | > 100 | > 100 | > 100 | > 100 | > 100 | > 100 | > 100 | > 100 |  | 
16 | Cc1cccc(C)c1NC(=O)C(=O)CC(=O)CO |  | > 100 |  | > 100 |  | > 100 |  |  |  | > 100 |  | > 100 |  | > 100 |  | > 100 |  | > 100 | > 100 | 
17 | COc1cc(-c2cn(-c3ccc(Cl)cc3)c(=O)[nH]2)cc(OC)c1OC | > 100 | > 100 | > 100 | > 100 | > 100 | > 100 | > 100 | > 100 | > 100 | > 100 | > 100 | > 100 | > 100 | > 100 | > 100 | > 100 | 0.034 | 39.1 |  | 
18 | COc1ccc(/C=C(\C#N)c2cc(OC)c3c(c2)OCO3)cc1 | 1.98 | > 100 | < 0.0121 | 4.39 |  |  | < 0.01 |  | < 0.01 |  | < 0.01 | < 0.0136 | < 0.0111 | 0.458 | 0.0278 | > 100 | < 0.01 | > 100 | 54.7 | 0.0128
19 | CC(=S)NNC(=O)c1ccncc1 |  | > 100 |  | > 100 |  | > 100 |  |  |  | > 100 |  | > 100 |  | > 100 |  | > 100 |  | > 100 | > 100 | 
20 | c1cncc(CNc2ccccc2-c2nnc(Nc3ccc4c(c3)OCCO4)o2)c1 | 0.609 | > 100 | 0.071 | > 100 | 19.2 | > 100 |  |  | 0.0369 | 7.9 | 0.0452 | 0.228 | 0.0745 | 1.79 | 0.345 | > 100 | 0.0424 | > 36 | 3.34 | 0.103
21 | CCOC(=O)C(Cc1c[nH]c2cc([N+](=O)[O-])ccc12)(NC(C)=O)C(=O)OCC | 59 | > 614 | 390 | > 1000 | 171 | > 1000 | > 649 | > 1000 |  | > 1000 | > 1000 | > 1000 | 184 | > 1000 | 148 | > 824 | 26.3 | 446 |  | 
22 | Cc1ccc(C2=Nc3ccccc3NC(=O)C2)cc1 |  | > 100 |  | > 100 |  | > 100 |  |  |  | > 100 |  | > 100 |  | > 100 |  | > 100 |  | > 100 | > 100 | 
23 | O=Cc1[nH]c2ccccc2c1Br |  | > 100 |  | 38.1 |  | 45.1 |  |  |  | > 100 |  | 56.5 |  | 44.9 |  | 67.2 |  | 61.1 | 51.8 | 
24 | Cc1c(C(=O)CC(=O)C(=O)Nc2cccc(C(F)(F)F)c2)[n+](=O)c2ccccc2n1[O-] |  | 20.3 |  | 10.2 |  | 13.3 |  |  |  | 5.5 |  | 4.92 |  | 50.2 |  | 19.9 |  | 8.82 | 7.65 | 
25 | O=C(Nc1ccc2oc(=O)c(C(=O)O)cc2c1)Oc1ccccc1 |  | > 100 |  | > 100 |  | > 100 |  | > 100 |  | > 100 |  | > 100 |  | > 100 |  | > 100 |  | > 100 |  | 
